# From patent US20150105458A1, “LINE LEAF INULA FLOWER LACTONE A AND METHODS FOR PREPARING AND USING THE SAME FOR TREATING MULTIPLE SCLEROSIS” (SHANXI ZHENDONG PILOT BIOLOGICAL SCIENCE AND TECHNOLOGY …, priority 2012, published 2015)
# Legend:
# [1] = test system: brain tissue of EAE mice; assay: HE staining of brain tissue of EAE mice; assay type: in vivo, C57BL/6 mice; conditions: intragastric administration, 50 mg/kg and higher doses; FIG. 2
# Procedure: (§1) EAE was induced in C57BL/6 mice (six mice per group) by subcutaneous injection of 0.1 ml of […] (in PBS, 300 μg/per mouse) on day 0, emulsified with Complete Freund's adjuvant (1:1) supplemented with Mycobacterium tuberculosis H37Ra antigen (400 μg/per mouse) or with Complete Freund's adjuvant alone as a control. All mice immunized with MOG received 250 ng pertussis toxin prepared in PBS, on days 0 and 2 by intraperitoneal injection.
# (§2) Line leaf inula flower lactone A 45.3 g (from Example 1) was suspended in 0.5% CMC—Na (carboxymethyl cellulose sodium) to make a mixture with final concentration as 10 mg/ml, then diluted to four concentration gradients: (1) 25 mg/kg per day; (2) 50 mg/kg per day; (3) 100 mg/kg per day; (4) 200 mg/kg per day. The drug was given to the mice by intragastric administration from day 0 to day 30.
# [2] = test system: EAE mice; assay: EAE model in mice, clinical course (onset and severity); assay type: in vivo, C57BL/6 mice; conditions: intragastric administration, 50 mg/kg once per day and higher doses, day 0 to day 30; FIG. 1
# Procedure: as §1, §2
smiles,measurement,setting,value
C=C1C(=O)O[C@H]2C[C@@H](C)[C@@H]3[C@@H](OC(C)=O)C[C@H](O)[C@@]3(C)[C@@H](OC(C)=O)[C@H]12 [line leaf inula flower lactone A],"arrangement of the organization (brain tissue, HE staining)",[1],basically returned to normal condition
same,inflammatory cells in brain and blood vessels (HE staining),[1],reduced number of inflammatory cells in brain and blood vessels
same,onset of EAE,[2],significantly delay the onset of EAE
same,severity of the disease (EAE),[2],reduced the severity of the disease
